For orientation: AC50 means the midpoint of the concentration-response curve, whichever way the signal moves. Low readings indicate activity at low concentration, high ones activity only at high concentration.

The experiment deals with TFEB. The experiment can be described thus: TFEB nuclear translocation assay, HeLa wt cells. The class given is cell-based. Particulars: Homo sapiens, HeLa, 2 h, 2 hrs compound treatment, Table 1 does not say HeLa wt or TRPML1 KO. The gist of the method:
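HeLa wt, 2 hr compound, 37° C; 4% PFA fix; anti-TFEB (rabbit, 1:200, overnight 4° C) + Alexa 488 secondary, Hoechst. Imaged ×20, 4 fields/well. Readout: nuclear/ring Alexa 488 intensity ratio; AC50.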
As for `C[C@@H]1CN(c2nn(S(=O)(=O)c3ccc(S(=O)(=O)N(C)C)cc3)c3ccccc23)C[C@H](C)C1(F)F` [Compound A-968, 4-({3-[(3R,5S)-4,4-difluoro-3,5-dimethylpiperidin-1-yl]-1H-indazol-1-yl}sulfonyl)-N,N-dimethylbenzene-1-sulfonamide], the AC50 is ≤ 2000 nM.

`C[C@@H]1CN(c2nn(S(=O)(=O)c3ccc(S(=O)(=O)N(C)C)cc3)c3ccccc23)C[C@H](C)C1F` (stereo partly drawn) [Compound A-969, 4-({3-[(3R,5S)-4-fluoro-3,5-dimethylpiperidin-1-yl]-1H-indazol-1-yl}sulfonyl)-N,N-dimethylbenzene-1-sulfonamide]: the concentration at half-maximal activity (AC50) was ≤ 2000 nM.

On to `CC(c1cccc(F)c1N1CCC(CN2C[C@@H](C)C(F)(F)[C@@H](C)C2)CC1)S(=O)(=O)c1ccc(S(=O)(=O)N(C)C)cc1` (stereo partly drawn) [Compound A-970, 4-{1-[2-(4-{[(3R,5S)-4,4-difluoro-3,5-dimethylpiperidin-1-yl]methyl}piperidin-1-yl)-3-fluorophenyl]ethanesulfonyl}-N,N-dimethylbenzene-1-sulfonamide], for which the AC50 was ≤ 2000 nM.

`CC(Sc1ccc(S(=O)(=O)C(F)F)cc1)c1cccc(F)c1N1CCCCC1` (stereo not drawn) [Compound A-971, 1-(2-{1-[(4-difluoromethanesulfonylphenyl)sulfanyl]ethyl}-6-fluorophenyl)piperidine] returned a concentration at half-maximal activity (AC50) of 2010 to 8000 nM.

`CC(c1cccc(F)c1N1CCCCC1)[S+]([O-])c1ccc(S(=O)(=O)C(F)F)cc1` (stereo not drawn) [Compound A-972, 1-{2-[1-(4-difluoromethanesulfonylbenzenesulfinyl)ethyl]-6-fluorophenyl}piperidine] registered an AC50 of 2010 to 8000 nM.

For `CC(c1cccc(F)c1N1CCCCC1)S(=O)(=O)c1ccc(S(=O)(=O)C(F)F)cc1` (stereo not drawn) [Compound A-973, 1-{2-[1-(4-difluoromethanesulfonylbenzenesulfonyl)ethyl]-6-fluorophenyl}piperidine], the AC50 was ≤ 2000 nM.

`C[C@@H]1COC[C@H](C)N1C[C@H]1CCN(c2c(F)cccc2NS(=O)(=O)c2ccc(S(=O)(=O)N(C)C)cc2)C1` [Compound A-984]: the concentration at half-maximal activity (AC50) was ≤ 2000 nM.

In the case of `CC(c1cccc(F)c1N1CCC(CN2CC3CCC(C2)C3(F)F)CC1)S(=O)(=O)c1ccc(S(=O)(=O)N(C)C)cc1` (stereo not drawn) [Compound A-985, 4-(1-{2-[4-({8,8-difluoro-3-azabicyclo[3.2.1]octan-3-yl}methyl)piperidin-1-yl]-3-fluorophenyl}ethanesulfonyl)-N,N-dimethylbenzene-1-sulfonamide], the AC50 is ≤ 2000 nM.

Regarding `CC(c1cncc(F)c1N1CCC(F)(F)CC1)S(=O)(=O)c1ccc(S(=O)(=O)N(C)C)cc1` (stereo not drawn) [Compound A-986, 4-{1-[4-(4,4-difluoropiperidin-1-yl)-5-fluoropyridin-3-yl]ethanesulfonyl}-N,N-dimethylbenzene-1-sulfonamide], the AC50 was ≥ 10000 nM.

Turning to `CC(c1cccnc1N1CCC(CN2CCC(F)(F)CC2)CC1)S(=O)(=O)c1ccc(S(=O)(=O)N(C)C)cc1` (stereo not drawn) [Compound A-987, 4-[1-(2-{4-[(4,4-difluoropiperidin-1-yl)methyl]piperidin-1-yl}pyridin-3-yl)ethanesulfonyl]-N,N-dimethylbenzene-1-sulfonamide], the AC50 was ≤ 2000 nM.

On to `CC(c1cncc(F)c1N1CCC(CN2CCC(F)(F)CC2)CC1)S(=O)(=O)c1ccc(S(=O)(=O)N(C)C)cc1` (stereo not drawn) [Compound A-996, 4-[1-(4-{4-[(4,4-difluoropiperidin-1-yl)methyl]piperidin-1-yl}-5-fluoropyridin-3-yl)ethanesulfonyl]-N,N-dimethylbenzene-1-sulfonamide], for which the AC50 is ≤ 2000 nM.

With `CC(c1cccc(F)c1N1CCC(CN2C[C@@H](C)O[C@@H](C)C2)CC1)S(=O)(=O)c1ccc(N=S(C)(C)=O)cc1` (stereo partly drawn) [Compound A-1002, [(4-{1-[2-(4-{[(2R,6S)-2,6-dimethylmorpholin-4-yl]methyl}piperidin-1-yl)-3-fluorophenyl]ethanesulfonyl}phenyl)imino]dimethyl-λ^6-sulfanone], the AC50 was ≥ 10000 nM.
